Measurements from patent US20110158944A1, “BRAF BIOMARKERS” (priority 2007, published 2011).
Like-named read-outs stand apart in the source and are kept apart here.

What was measured:
Test in all cases: Cell proliferation IC50 (Cell Titer Glo)
Format in all cases: cell-based
A375 = conditions: Homo sapiens, A-375, 96 h, read-out: IC50 cell proliferation
Method: (§1) IC50 Cell proliferation measurements. Cell proliferation was assessed in the 41 tumor cell lines set forth in Table 2 after 4 days of continuous exposure to either the ERK1/2 inhibitor, compound a or the MEK inhibitor compound b (PD0325901) using Promega Cell Titer Glo reagent (Promega Corp, Madison, Wis.). Promega's CellTiter-Glo™ Luminescent Cell Viability Assay is a sensitive method for assaying cell proliferation using a stable form of luciferase to measure ATP as an indicator of viable cells. This reagent allows a homogeneous method of determining cell number by quantitation of ATP. The luciferase luminescent signal produced is proportional to the number of viable cells present in culture.
(§2) A 1000× compound dose response curve, containing 8 dilutions of each compound, was prepared on a 96-well plate. Compounds were diluted in 100% DMSO to the following (1000×) concentrations: compound b: 1000 μM, 333 μM, 111 μM, 37 μM, 12 μM, 4.1 μM, 1.4 μM and 0.5 μM; compound a: 3000 μM, 1000 μM, 333 μM, 111 μM, 37 μM, 12 μM, 4.1 μM and 1.4 μM. This compound source plate was sealed and kept frozen between uses.
(§3) Cells were grown in RPMI 1640 medium supplemented with 10% Fetal Bovine Serum, 2 mM Glutamine and non-essential amino acids or DMEM/F12 Media containing the same supplements. On day zero, cells were trypsinized, counted and plated into wells of a 96-well Wallac TC Isoplate (Perkin-Elmer Wallac, Gaithersburg, Md.) at a density of 1500-2000 cells per well in 50 μl of complete media. An additional 6-8 replicate well of the cells at the same density were plated on a separate Wallac TC Isoplate. This plate was developed on day 1 to determine the cell-growth baseline.
(§4) On day 1 of treatment, compound was diluted to 2× in media and immediately added to the cells as follows: one ml of media was added to each well of a deep-well 96-well plate and 2 μl of 1000× compound was added with mixing to make 2× compound in media. 50 μl of the media containing 2× compound was added to the cell plates in duplicate points so the final concentrations for each well were as outlined in Table 1. The plates were then returned to a 37° C. incubator and left undisturbed for 4 days. The day 1 (baseline) plates were developed by first adding 50 μl media (without compound) to bring the volume in each well to 100 μl, then adding 100 μl of Cell Titer Glo reagent (as below).
(§5) After four days of treatment, the plates were developed with Cell Titer Glo (CTG) reagent (Promega Corp.; Madison, Wis.). Reagent was reconstituted as described in the product insert. 100 μl of reagent was added to all treatment and control wells and the plates were gently shaken for 5 minutes then incubated an additional 5 minutes before reading in an Analyst AD (Molecular Devices Corporation; Sunnyvale, Calif.) using the Luminescence settings.
(§6) Data was analyzed in Excel using XLfit 4.2, fit model #205 (Dose Response One Site)

8505C = conditions: Homo sapiens, 96 h, read-out: IC50 cell proliferation
Method: as §1, §2, §3, §4, §5, §6

A2058 = conditions: Homo sapiens, read-out: IC50 cell proliferation
Method: as §1, §2, §3, §4, §5, §6

MB-453 = conditions: Homo sapiens, 96 h, read-out: IC50 cell proliferation
Method: as §1, §2, §3, §4, §5, §6

U-937 = conditions: Homo sapiens, read-out: IC50 cell proliferation
Method: as §1, §2, §3, §4, §5, §6

UACC-62 = conditions: Homo sapiens, read-out: IC50 cell proliferation
Method: as §1, §2, §3, §4, §5, §6

HT-144 = conditions: Homo sapiens, read-out: IC50 cell proliferation
Method: as §1, §2, §3, §4, §5, §6

M14 = conditions: Homo sapiens, read-out: IC50 cell proliferation
Method: as §1, §2, §3, §4, §5, §6

IGROV-1 = conditions: Homo sapiens, read-out: IC50 cell proliferation
Method: as §1, §2, §3, §4, §5, §6

BxPc-3 = conditions: Homo sapiens, read-out: IC50 cell proliferation
Method: as §1, §2, §3, §4, §5, §6

Hs746T = conditions: Homo sapiens, 96 h, read-out: IC50 cell proliferation
Method: as §1, §2, §3, §4, §5, §6

SK-Mel-28 = conditions: Homo sapiens, read-out: IC50 cell proliferation
Method: as §1, §2, §3, §4, §5, §6

Hs294T = conditions: Homo sapiens, Hs 294T, 96 h, read-out: IC50 cell proliferation
Method: as §1, §2, §3, §4, §5, §6

ES-2 = conditions: Homo sapiens, read-out: IC50 cell proliferation
Method: as §1, §2, §3, §4, §5, §6

Caki-1 = conditions: Homo sapiens, read-out: IC50 cell proliferation
Method: as §1, §2, §3, §4, §5, §6

Jijoye = conditions: Homo sapiens, 96 h, read-out: IC50 cell proliferation
Method: as §1, §2, §3, §4, §5, §6

TT = conditions: Homo sapiens, 96 h, Thyroid, BRAF V600V Wild type, 4 days continuous exposure
Method: as §1, §2, §3, §4, §5, §6

For O=C(Nc1ccc2[nH]nc(-c3ccncc3)c2c1)C1CCN(CC(=O)N2CCN(c3ccc(-c4ncccn4)cc3)CC2)C1 (stereo not shown) [cpd. a], the IC50 (A375; A375, Melanoma, BRAF V600E Homozygous, 4 days continuous exposure) was 75 nM, the IC50 (8505C; Thyroid, BRAF V600E Homozygous, 4 days continuous exposure) was 50 nM and the IC50 (A2058; 96 h, A2058, Melanoma, BRAF V600E Heterozygous, 4 days continuous exposure) was 120 nM. The IC50 (MB-453; MB-453, Breast, BRAF V600E Heterozygous, 4 days continuous exposure) was 672 nM, the IC50 (U-937; 96 h, U-937, Leukemia, BRAF V600V Wild type, 4 days continuous exposure) was greater than 3000 nM and the IC50 (UACC-62; 96 h, UACC-62, Melanoma, BRAF V600E Homozygous, 4 days continuous exposure) was 30 nM. For the same compound, the IC50 (HT-144; 96 h, HT-144, Melanoma, BRAF V600E Homozygous, 4 days continuous exposure) was 60 nM, the IC50 (M14; 96 h, M14, Melanoma, BRAF V600E Homozygous, 4 days continuous exposure) was 40 nM and the IC50 (IGROV-1; 96 h, IGROV-1, Ovarian, BRAF V600V Wild type, 4 days continuous exposure) was 146 nM. It also gave an IC50 (BxPc-3; 96 h, BxPc-3, Pancreas, BRAF V600V Wild type, 4 days continuous exposure) of 184 nM, an IC50 (Hs746T; Gastric, BRAF V600V Wild type, 4 days continuous exposure) of 125 nM and an IC50 (SK-Mel-28; 96 h, SK-Mel-28, Melanoma, BRAF V600E Homozygous, 4 days continuous exposure) of 85 nM. The IC50 (Hs294T; Hs294T, Melanoma, BRAF V600E Heterozygous, 4 days continuous exposure) was 1720 nM, the IC50 (ES-2; 96 h, ES-2, Ovarian, BRAF V600E Heterozygous, 4 days continuous exposure) was 2660 nM and the IC50 (Caki-1; 96 h, Caki-1, Renal, BRAF V600V Wild type, 4 days continuous exposure) was 450 nM. The IC50 (Jijoye; Jijoye, Leukemia, BRAF V600V Wild type, 4 days continuous exposure) was greater than 3000 nM and the IC50 (TT) was 406 nM.

O=C(NOC[C@H](O)CO)c1ccc(F)c(F)c1Nc1ccc(I)cc1F [cpd. b, PD0325901] showed an IC50 (A375) of 5 nM, an IC50 (8505C) of 10 nM and an IC50 (A2058; A2058, 96 h) of 10 nM. For the same compound, the IC50 (MB-453) was 1000 nM, the IC50 (U-937; U-937, 96 h) was 1000 nM and the IC50 (UACC-62; UACC-62, 96 h) was 5 nM. It also gave an IC50 (HT-144; HT-144, 96 h) of 10 nM, an IC50 (M14; M14, 96 h) of 3 nM and an IC50 (IGROV-1; IGROV-1, 96 h) of 39 nM. The IC50 (BxPc-3; BXPC-3, 96 h) was 119 nM, the IC50 (Hs746T) was 7 nM and the IC50 (SK-Mel-28; SK-MEL-28, 96 h) was 10 nM. The IC50 (Hs294T) was 71 nM, the IC50 (ES-2; ES-2, 96 h) was 1000 nM and the IC50 (Caki-1; CAKI-1, 96 h) was 180 nM. For the same compound, the IC50 (Jijoye) was 1000 nM and the IC50 (TT) was 255 nM.
